Measured values from ChEMBL document CHEMBL1201862, “PubChem BioAssay data set” (2004).
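Exposure lasted 48 hours, with cells grown in 96-well plates and compounds tested at five concentrations. At the GI50, growth is halved.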 Active and inactive are the calls of the source. Cut-off read from the data, not from the text of the source: active = GI50 up to about 1.1 µM and inactive = higher.

How the values were obtained:
Assay in all cases: growth of human tumour cells (NCI), 48 h
SK-MEL-5 = test system: SK-MEL-5
786-0 = test system: 786-0
RPMI-8226 = test system: RPMI-8226
T47D = test system: T47D
SNB-19 = test system: SNB-19
M14 = test system: M14
CAKI-1 = test system: CAKI-1
IGROV-1 = test system: IGROV-1
NCI-H23 = test system: NCI-H23
TK-10 = test system: TK-10
A549 = test system: A549
ACHN = test system: ACHN
NCI-H226 = test system: NCI-H226
SK-MEL-2 = test system: SK-MEL-2
MDA-MB-435 = test system: MDA-MB-435
UO-31 = test system: UO-31
A498 = test system: A498
SNB-75 = test system: SNB-75

Row | Compound | GI50 (SK-MEL-5) | GI50 (786-0) | GI50 (RPMI-8226) | GI50 (T47D) | GI50 (SNB-19) | GI50 (M14) | GI50 (CAKI-1) | GI50 (IGROV-1) | GI50 (NCI-H23) | GI50 (TK-10) | GI50 (A549) | GI50 (ACHN) | GI50 (NCI-H226) | GI50 (SK-MEL-2) | GI50 (MDA-MB-435) | GI50 (UO-31) | GI50 (A498) | GI50 (SNB-75)
1 | CC(C)(NO)/C(=N\O)c1ccco1 | > 100 µM (inactive) | > 100 µM (inactive) | > 100 µM (inactive) | > 100 µM (inactive) | > 100 µM (inactive) | > 100 µM (inactive) | > 100 µM (inactive) | > 100 µM (inactive) | > 100 µM (inactive) | > 100 µM (inactive) | > 100 µM (inactive) | > 100 µM (inactive) | > 100 µM (inactive) | > 100 µM (inactive) | > 100 µM (inactive) | > 100 µM (inactive) | – | –
2 | O=c1cc(NNc2ccc3ccccc3c2)[nH]c(=S)[nH]1 | > 100 µM (inactive) | 6.75 µM (inactive) | 22.2 µM (inactive) | – | 94.8 µM (inactive) | 33.2 µM (inactive) | – | 22.5 µM (inactive) | > 100 µM (inactive) | > 100 µM (inactive) | > 100 µM (inactive) | 31.6 µM (inactive) | > 100 µM (inactive) | – | 23.4 µM (inactive) | > 100 µM (inactive) | > 100 µM (inactive) | –
3 | Oc1cc(-c2ccc3ccccc3c2)nc2ncccc12 | – | 12.1 µM (inactive) | 3.15 µM (inactive) | 11.6 µM (inactive) | 17.8 µM (inactive) | 7.13 µM (inactive) | – | 6.4 µM (inactive) | 10.7 µM (inactive) | 19.8 µM (inactive) | 4.68 µM (inactive) | 31.9 µM (inactive) | 23 µM (inactive) | 4.95 µM (inactive) | – | 18.1 µM (inactive) | 7.23 µM (inactive) | 11.5 µM (inactive)
4 | COc1ccc(C2C3=C(Nc4ncnn42)c2ccccc2OC3c2ccccc2)cc1 (stereo unspecified) | 14.9 µM (inactive) | 47.1 µM (inactive) | – | 13.7 µM (inactive) | > 100 µM (inactive) | 61.8 µM (inactive) | 26.5 µM (inactive) | 27.1 µM (inactive) | 43.6 µM (inactive) | – | 14.9 µM (inactive) | 18.5 µM (inactive) | – | 6 µM (inactive) | 4.3 µM (inactive) | 50.1 µM (inactive) | 1.03 µM (active) | –
5 | COc1cc(CNc2nc3cc(C(F)(F)F)ccc3nc2-c2ccccc2)cc(OC)c1OC | 25.2 µM (inactive) | 30 µM (inactive) | 25.6 µM (inactive) | 1.65 µM (inactive) | > 100 µM (inactive) | 30.5 µM (inactive) | 39.4 µM (inactive) | 25.9 µM (inactive) | 21 µM (inactive) | > 100 µM (inactive) | 37.3 µM (inactive) | 16.7 µM (inactive) | 32.3 µM (inactive) | – | 28.5 µM (inactive) | 31.6 µM (inactive) | – | 5.79 µM (inactive)
6 | COC(=O)C1=C(C(=O)OC)C(C(=O)c2ccccc2)N2N=C(c3ccc(Cl)cc3)C=CC12 (stereo unspecified) | 9.23 µM (inactive) | > 100 µM (inactive) | 3.95 µM (inactive) | > 100 µM (inactive) | > 100 µM (inactive) | > 100 µM (inactive) | > 100 µM (inactive) | – | 26.1 µM (inactive) | 2.85 µM (inactive) | 31 µM (inactive) | > 100 µM (inactive) | 13.9 µM (inactive) | > 100 µM (inactive) | 9.44 µM (inactive) | > 100 µM (inactive) | > 100 µM (inactive) | –
7 | COc1ccc(/C(C)=N/OC(=O)c2c(-c3ccccc3Cl)noc2C)cc1CN1CCOCC1 | 17.3 µM (inactive) | 24.5 µM (inactive) | 26.1 µM (inactive) | 16.4 µM (inactive) | 16.2 µM (inactive) | 14 µM (inactive) | 20.7 µM (inactive) | 21.1 µM (inactive) | 32.6 µM (inactive) | 43.1 µM (inactive) | 19.1 µM (inactive) | 15.7 µM (inactive) | 88.1 µM (inactive) | 16.4 µM (inactive) | 20.8 µM (inactive) | 3.75 µM (inactive) | – | 28.4 µM (inactive)
8 | CC1(C)[C@@H]2C[C@H]1C(Cc1ccc(C[C@H]3c4cc(-c5ccccn5)ncc4[C@H]4C[C@@H]3C4(C)C)cc1)c1cc(-c3ccccn3)ncc12 (stereo partly specified) | 0.619 µM (active) | 1.41 µM (inactive) | 3.03 µM (inactive) | 2.52 µM (inactive) | 3.32 µM (inactive) | 1.16 µM (inactive) | 2.45 µM (inactive) | 1.25 µM (inactive) | 2.68 µM (inactive) | 0.841 µM (active) | 0.807 µM (active) | 0.971 µM (active) | – | 7.38 µM (inactive) | 1.13 µM (inactive) | 0.931 µM (active) | 2.36 µM (inactive) | 59.8 µM (inactive)
9 | Cc1cc2c(nn1)CCc1c-2no[n+]1[O-] | > 100 µM (inactive) | > 100 µM (inactive) | > 100 µM (inactive) | > 100 µM (inactive) | > 100 µM (inactive) | > 100 µM (inactive) | > 100 µM (inactive) | > 100 µM (inactive) | > 100 µM (inactive) | > 100 µM (inactive) | > 100 µM (inactive) | > 100 µM (inactive) | > 100 µM (inactive) | 50.1 µM (inactive) | > 100 µM (inactive) | > 100 µM (inactive) | – | > 100 µM (inactive)
10 | Cc1ccc(S(=O)(=O)ON2C(=O)c3cccc4cc([N+](=O)[O-])cc(c34)C2=O)cc1 | 69.3 µM (inactive) | 47.5 µM (inactive) | > 100 µM (inactive) | 51.6 µM (inactive) | 57.8 µM (inactive) | > 100 µM (inactive) | 55.8 µM (inactive) | 40.6 µM (inactive) | > 100 µM (inactive) | 42.9 µM (inactive) | > 100 µM (inactive) | 62.1 µM (inactive) | 54.8 µM (inactive) | 84.5 µM (inactive) | 40.3 µM (inactive) | 42.1 µM (inactive) | – | 41.9 µM (inactive)
11 | O=C(/C=C/c1cc(F)ccc1F)OCCc1ccccc1 | 29.2 µM (inactive) | 89.3 µM (inactive) | 47.3 µM (inactive) | – | > 100 µM (inactive) | > 100 µM (inactive) | > 100 µM (inactive) | > 100 µM (inactive) | > 100 µM (inactive) | > 100 µM (inactive) | > 100 µM (inactive) | > 100 µM (inactive) | > 100 µM (inactive) | > 100 µM (inactive) | > 100 µM (inactive) | 95.7 µM (inactive) | > 100 µM (inactive) | 83.6 µM (inactive)
12 | Cc1ccccc1NC(=O)Cc1csc(N/N=C2\C(=O)Nc3ccccc32)n1 | 46.8 µM (inactive) | 43 µM (inactive) | 31 µM (inactive) | – | 71.8 µM (inactive) | 50 µM (inactive) | 19.9 µM (inactive) | 33.9 µM (inactive) | 38.4 µM (inactive) | 53.2 µM (inactive) | 48.9 µM (inactive) | 36.8 µM (inactive) | 41.8 µM (inactive) | 44.6 µM (inactive) | 1 µM (active) | 40.8 µM (inactive) | > 100 µM (inactive) | 55.1 µM (inactive)
13 | O=C(CCCNc1nc(-c2ccccc2)cs1)c1cccs1 | > 100 µM (inactive) | > 100 µM (inactive) | > 100 µM (inactive) | > 100 µM (inactive) | > 100 µM (inactive) | > 100 µM (inactive) | > 100 µM (inactive) | > 100 µM (inactive) | > 100 µM (inactive) | > 100 µM (inactive) | > 100 µM (inactive) | > 100 µM (inactive) | > 100 µM (inactive) | > 100 µM (inactive) | > 100 µM (inactive) | > 100 µM (inactive) | – | > 100 µM (inactive)
14 | O=c1cc(-c2ccccc2)[nH]c2cc(F)cc(F)c12 | 10.1 µM (inactive) | 52.4 µM (inactive) | 30.1 µM (inactive) | – | – | 30.3 µM (inactive) | 21.8 µM (inactive) | 37.8 µM (inactive) | 48.6 µM (inactive) | 63.7 µM (inactive) | 20.8 µM (inactive) | 50.9 µM (inactive) | 20.9 µM (inactive) | 18.2 µM (inactive) | – | 37 µM (inactive) | – | 14.8 µM (inactive)
15 | C[C@H]1CC[C@@]2(NC1)O[C@H]1C[C@H]3[C@@H]4CC[C@H]5C[C@@H](O)CC[C@]5(C)[C@H]4CC[C@]3(C)[C@H]1[C@@H]2C | 90.4 µM (inactive) | 39.9 µM (inactive) | > 100 µM (inactive) | > 100 µM (inactive) | > 100 µM (inactive) | > 100 µM (inactive) | > 100 µM (inactive) | 71.6 µM (inactive) | 85.5 µM (inactive) | > 100 µM (inactive) | > 100 µM (inactive) | 39.5 µM (inactive) | > 100 µM (inactive) | > 100 µM (inactive) | – | > 100 µM (inactive) | 77.8 µM (inactive) | 57.5 µM (inactive)
16 | CC(=O)Oc1ccc2cc(-c3ccc(OC(C)=O)c(OC(C)=O)c3)c(=O)oc2c1 | – | > 100 µM (inactive) | 39.3 µM (inactive) | 24.5 µM (inactive) | > 100 µM (inactive) | 74.8 µM (inactive) | – | – | > 100 µM (inactive) | 26.5 µM (inactive) | 73.6 µM (inactive) | > 100 µM (inactive) | > 100 µM (inactive) | > 100 µM (inactive) | 61.5 µM (inactive) | 56 µM (inactive) | 34.4 µM (inactive) | –
17 | O=C1/C(=c2\s/c(=C\c3ccccc3)c(=O)n2-c2ccccc2)SC(=S)N1c1ccccc1 | 53.2 µM (inactive) | 45.8 µM (inactive) | 56.8 µM (inactive) | – | 46.1 µM (inactive) | > 100 µM (inactive) | 0.131 µM (active) | 25 µM (inactive) | 76.7 µM (inactive) | 28.9 µM (inactive) | 34.8 µM (inactive) | 22.3 µM (inactive) | 25.5 µM (inactive) | 32.3 µM (inactive) | 49.8 µM (inactive) | – | 39.2 µM (inactive) | 19.4 µM (inactive)
